Assay results from the NIST ThermoML archive (doi:10.1016/j.tca.2013.05.017).
Where “and” joins values, the source holds several entries; their conditions need not be identical. Equal values may be shown once.

Test: molar heat capacity at constant pressure
Conditions: 101.33 kPa, Crystal 2, Small (less than 1 g) adiabatic calorimetry

O=S(=O)([O-])[O-].[Sr+2] [sulfuric acid, strontium salt (1:1)]
Conditions | molar heat capacity at constant pressure
5 K | 0.03816 J/K/mol
5.083 K | 0.04505 J/K/mol
5.422 K | 0.04233 J/K/mol
5.622 K | 0.05543 J/K/mol
5.831 K | 0.05464 J/K/mol
6.044 K | 0.06693 J/K/mol
6.285 K | 0.07062 J/K/mol
6.354 K | 0.08024 J/K/mol
6.677 K | 0.09728 J/K/mol
6.759 K | 0.1018 J/K/mol
7.066 K | 0.1205 J/K/mol
7.169 K | 0.1252 J/K/mol
7.482 K | 0.1475 J/K/mol
7.591 K | 0.1545 J/K/mol
7.904 K | 0.1777 J/K/mol
8.021 K | 0.1873 J/K/mol
8.33 K | 0.2151 J/K/mol
8.448 K | 0.2273 J/K/mol
8.763 K | 0.2543 J/K/mol
8.881 K | 0.2707 J/K/mol
9.197 K | 0.3046 J/K/mol
9.317 K | 0.3217 J/K/mol
9.635 K | 0.3631 J/K/mol
9.755 K | 0.3798 J/K/mol
10 K | 0.4163 J/K/mol
10.08 K | 0.427 J/K/mol
10.2 K | 0.4451 J/K/mol
10.75 K | 0.543 J/K/mol
10.86 K | 0.5647 J/K/mol
11.64 K | 0.7154 J/K/mol
11.75 K | 0.7406 J/K/mol
12.54 K | 0.9194 J/K/mol
12.65 K | 0.9503 J/K/mol
13.45 K | 1.16 J/K/mol
13.55 K | 1.197 J/K/mol
14.36 K | 1.446 J/K/mol
14.47 K | 1.484 J/K/mol
15 K | 1.665 J/K/mol
15.29 K | 1.771 J/K/mol
15.39 K | 1.813 J/K/mol
16.22 K | 2.105 J/K/mol
16.32 K | 2.148 J/K/mol
17.16 K | 2.488 J/K/mol
17.26 K | 2.531 J/K/mol
18.1 K | 2.928 J/K/mol
18.2 K | 2.96 J/K/mol
19.05 K | 3.383 J/K/mol
19.14 K | 3.432 J/K/mol
20 K | 3.864 J/K/mol
20.01 K | 3.84 J/K/mol
20.1 K | 3.907 J/K/mol
21.44 K | 4.638 J/K/mol
21.53 K | 4.687 J/K/mol
23.36 K | 5.734 J/K/mol
23.44 K | 5.783 J/K/mol
25 K | 6.782 J/K/mol
25.3 K | 6.945 J/K/mol
25.37 K | 6.99 J/K/mol
27.25 K | 8.25 J/K/mol
27.32 K | 8.313 J/K/mol
29.2 K | 9.624 J/K/mol
30 K | 10.21 J/K/mol
30.75 K | 10.74 J/K/mol
31.17 K | 11.03 J/K/mol
32.62 K | 12.1 J/K/mol
33.14 K | 12.44 J/K/mol
34.6 K | 13.58 J/K/mol
34.76 K | 13.71 J/K/mol
35 K | 13.95 J/K/mol
35.1 K | 13.99 J/K/mol
36.58 K | 15.12 J/K/mol
36.73 K | 15.23 J/K/mol
37.07 K | 15.51 J/K/mol
38.55 K | 16.71 J/K/mol
38.7 K | 16.81 J/K/mol
40 K | 17.87 J/K/mol
40.53 K | 18.29 J/K/mol
40.68 K | 18.39 J/K/mol
42.52 K | 19.85 J/K/mol
42.65 K | 19.96 J/K/mol
44.51 K | 21.4 J/K/mol
44.63 K | 21.49 J/K/mol
45 K | 21.83 J/K/mol
46.49 K | 22.95 J/K/mol
46.61 K | 23 J/K/mol
48.48 K | 24.46 J/K/mol
48.59 K | 24.49 J/K/mol
50 K | 25.73 J/K/mol
50.48 K | 26 J/K/mol
50.57 K | 26.02 J/K/mol
52.46 K | 27.61 J/K/mol
52.55 K | 27.61 J/K/mol
54.45 K | 29.14 J/K/mol
54.52 K | 29.14 J/K/mol
55 K | 29.5 J/K/mol
56.45 K | 30.48 J/K/mol
56.51 K | 30.49 J/K/mol
58.44 K | 31.73 J/K/mol
58.49 K | 31.79 J/K/mol
60 K | 33.05 J/K/mol
60.44 K | 33.28 J/K/mol
60.48 K | 33.28 J/K/mol
62.43 K | 34.65 J/K/mol
62.46 K | 34.66 J/K/mol
64.42 K | 35.97 J/K/mol
64.44 K | 35.9 J/K/mol
65 K | 36.36 J/K/mol
66.35 K | 37.12 J/K/mol and 37.15 J/K/mol
68.19 K | 38.26 J/K/mol
68.21 K | 38.27 J/K/mol
69.98 K | 39.31 J/K/mol
70 K | 39.32 J/K/mol and 39.45 J/K/mol
72.35 K | 40.74 J/K/mol
72.39 K | 40.75 J/K/mol
75 K | 42.32 J/K/mol
75.34 K | 42.37 J/K/mol
75.41 K | 42.41 J/K/mol
78.33 K | 43.98 J/K/mol
78.44 K | 44.04 J/K/mol
79.87 K | 44.73 J/K/mol
80 K | 44.96 J/K/mol
81.29 K | 45.47 J/K/mol
81.33 K | 45.52 J/K/mol
81.48 K | 45.58 J/K/mol
83.56 K | 46.57 J/K/mol
84.99 K | 47.25 J/K/mol
85 K | 47.4 J/K/mol
85.53 K | 47.51 J/K/mol
85.54 K | 47.52 J/K/mol
86.61 K | 48.03 J/K/mol
88.05 K | 48.76 J/K/mol
89.26 K | 49.19 J/K/mol
89.28 K | 49.23 J/K/mol
89.67 K | 49.42 J/K/mol
90 K | 49.69 J/K/mol
92.33 K | 50.55 J/K/mol
92.35 K | 50.59 J/K/mol
92.74 K | 50.75 J/K/mol
95 K | 51.83 J/K/mol
95.41 K | 51.85 J/K/mol
95.43 K | 51.89 J/K/mol
95.81 K | 52.06 J/K/mol
98.5 K | 53.08 J/K/mol
98.51 K | 53.12 J/K/mol
98.89 K | 53.27 J/K/mol
100 K | 53.84 J/K/mol
101.59 K | 54.27 J/K/mol
101.61 K | 54.31 J/K/mol
101.98 K | 54.46 J/K/mol
104.69 K | 55.44 J/K/mol
104.71 K | 55.47 J/K/mol
105.08 K | 55.61 J/K/mol
107.8 K | 56.58 J/K/mol
107.82 K | 56.6 J/K/mol
108.19 K | 56.76 J/K/mol
110 K | 57.52 J/K/mol
110.92 K | 57.67 J/K/mol
110.94 K | 57.74 J/K/mol
111.31 K | 57.81 J/K/mol
114.04 K | 58.72 J/K/mol
114.06 K | 58.77 J/K/mol
114.43 K | 58.88 J/K/mol
117.18 K | 59.76 J/K/mol
117.2 K | 59.81 J/K/mol
117.56 K | 59.97 J/K/mol
120 K | 60.88 J/K/mol
120.32 K | 60.79 J/K/mol
120.33 K | 60.87 J/K/mol
120.71 K | 60.96 J/K/mol
123.46 K | 61.8 J/K/mol
123.49 K | 61.84 J/K/mol
123.85 K | 61.96 J/K/mol
126.62 K | 62.8 J/K/mol
126.64 K | 62.83 J/K/mol
127.01 K | 62.93 J/K/mol
129.77 K | 63.78 J/K/mol
129.8 K | 63.86 J/K/mol
130 K | 64.04 J/K/mol
130.19 K | 63.91 J/K/mol
132.94 K | 64.72 J/K/mol
132.97 K | 64.77 J/K/mol
133.35 K | 64.93 J/K/mol
136.13 K | 65.69 J/K/mol
136.16 K | 65.79 J/K/mol
136.53 K | 65.82 J/K/mol
139.32 K | 66.68 J/K/mol
139.35 K | 66.65 J/K/mol
139.72 K | 66.8 J/K/mol
140 K | 67.03 J/K/mol
142.51 K | 67.53 J/K/mol
142.54 K | 67.62 J/K/mol
142.91 K | 67.65 J/K/mol
